The target in one test is T1, M1 muscarinic receptor (Homo sapiens, UniProt P11229).
T1 construct: expressed in transfected cells; host or cells: CHO (M1-CHO)
T1 sequence (P11229 1-460): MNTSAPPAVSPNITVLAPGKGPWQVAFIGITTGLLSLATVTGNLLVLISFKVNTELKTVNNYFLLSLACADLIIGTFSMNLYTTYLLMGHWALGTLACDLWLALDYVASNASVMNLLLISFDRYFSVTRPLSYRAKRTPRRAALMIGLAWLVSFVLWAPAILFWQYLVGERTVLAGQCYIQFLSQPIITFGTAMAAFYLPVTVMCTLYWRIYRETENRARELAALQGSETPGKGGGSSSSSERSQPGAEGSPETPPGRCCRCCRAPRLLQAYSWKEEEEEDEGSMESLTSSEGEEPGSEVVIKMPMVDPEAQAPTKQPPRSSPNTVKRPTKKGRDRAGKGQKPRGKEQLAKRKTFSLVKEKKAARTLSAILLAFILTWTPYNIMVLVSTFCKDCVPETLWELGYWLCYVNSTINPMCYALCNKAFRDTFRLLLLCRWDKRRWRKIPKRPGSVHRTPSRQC
The test is described as follows: Functional mobilization of intracellular calcium (FLIPR) in M1-CHO cells. It counts as cell-based. Conditions: Table 4; for Emax: 100% efficacy is the maximum response obtained with the Carbachol control; for M1 Activity: M1 receptor, calcium mobilization (FLIPR). In a few lines:
(§1)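 Intracellular calcium rise is measured by FLIPR fluorescence over 60 sec in CHO cells carrying human M1 or M4 receptors. Compounds are tested alone as agonists, or pre-incubated 15 min (or co-applied) ahead of carbachol at its EC80 to detect inhibition.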
(In general: Calcium assays in cells follow changes in intracellular calcium, usually with a dye or a luminescent sensor.)

For a further test, the target named is T2, M4 muscarinic receptor (Homo sapiens, UniProt P08173).
T2 construct: expressed in transfected cells; host or cells: CHO (M4-CHO)
T2 sequence (P08173 1-479): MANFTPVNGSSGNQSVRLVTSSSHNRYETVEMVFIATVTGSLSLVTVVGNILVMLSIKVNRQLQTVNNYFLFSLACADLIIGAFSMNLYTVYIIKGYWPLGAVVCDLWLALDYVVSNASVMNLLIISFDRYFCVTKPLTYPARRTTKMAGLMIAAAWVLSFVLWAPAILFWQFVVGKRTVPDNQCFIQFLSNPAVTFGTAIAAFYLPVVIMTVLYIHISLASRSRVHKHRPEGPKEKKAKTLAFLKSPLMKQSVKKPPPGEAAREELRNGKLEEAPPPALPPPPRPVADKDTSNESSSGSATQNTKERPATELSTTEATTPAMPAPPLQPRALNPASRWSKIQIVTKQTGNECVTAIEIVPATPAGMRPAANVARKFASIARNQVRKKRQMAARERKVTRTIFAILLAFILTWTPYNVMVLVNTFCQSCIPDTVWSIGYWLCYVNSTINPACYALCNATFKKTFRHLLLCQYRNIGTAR
The test is described as follows: Functional mobilization of intracellular calcium (FLIPR) in M4-CHO cells. The test is classed as cell-based. The conditions noted are these: Table 4; for Emax: 100% efficacy is the maximum response obtained with the Carbachol control; for M4 Activity: M4 receptor, calcium mobilization (FLIPR). The method, boiled down:
as §1

As to `COCCN1CC2(CCN(C3CC4CCC(C4)C3)CC2)c2cc(F)ccc21` (stereo not drawn) [compound 884], on M1 muscarinic receptor, the maximal response (Emax) (in general, the maximal effect, on the per cent scale that the assay sets) lay within 25 to 100% and the “M1 Activity” value is given as “xxx (activity was measured to be less than 2.0 μM)”. Moreover, on M4 muscarinic receptor, the Emax fell in the range of 25 to 100% and the “M4 Activity” value was “xxx (activity was measured to be less than 2.0 μM)”.
Take `CN(C)C(=O)N1CC2(CCN(C3CCN(C(=O)OCC(F)F)CC3)CC2)c2cc(F)ccc21` [compound 885]: on M1 muscarinic receptor, the Emax lay in the range of 25 to 100% and the “M1 Activity” value was “xxx (activity was measured to be less than 2.0 μM)”. For the same molecule, at M4 muscarinic receptor, the Emax lay within 25 to 100% and the “M4 Activity” value was “xxx (activity was measured to be less than 2.0 μM)”.
Regarding `CC#CCOC(=O)N1CC[C@@H](CN2CCC3(CC2)CN(C(C)=O)c2ccccc23)C1` [compound 886], on M1 muscarinic receptor, the maximum response (Emax) was in the range of 25 to 100% and the “M1 Activity” value was “xxx (activity was measured to be less than 2.0 μM)”. Besides, at M4 muscarinic receptor, the Emax lay in the range of 25 to 100% and the “M4 Activity” value is on record as “xxx (activity was measured to be less than 2.0 μM)”.
With `CN(C)C(=O)N1CC2(CCN(C3CCN(C(=O)c4ccccc4F)CC3)CC2)c2cc(F)ccc21` [compound 887], on M1 muscarinic receptor, the Emax lay within 25 to 100%; the “M1 Activity” value was “xx (activity was measured to be between 2.0 μM and 5.0 μM)”. For the same molecule, on M4 muscarinic receptor, the maximum response (Emax) was less than 25% and the “M4 Activity” value is “x (activity was measured to be greater than 5.0 μM)”.
For the molecule `CC(=O)NC1CCC2(CCN(CCC3CCCN(C(=O)N(C)C)C3)CC2)c2ccccc21` (stereo not drawn) [compound 888], on M1 muscarinic receptor, the Emax fell in the range of 25 to 100% and the “M1 Activity” value is on record as “xxx (activity was measured to be less than 2.0 μM)”. Moreover, on M4 muscarinic receptor, the Emax was less than 25% and the “M4 Activity” value is “x (activity was measured to be greater than 5.0 μM)”.
The like results for `O=C(N[C@H]1CCC2(CCN(CC3CCCCC3)CC2)c2ccccc21)C1CC1` [compound 889] were, in that order, 25 to 100%, “xxx (activity was measured to be less than 2.0 μM)”, 25 to 100% and “xxx (activity was measured to be less than 2.0 μM)”.
`CCOC(=O)N1CCC(N2CCC3(CC2)CN(c2ccsc2)c2ccc(F)cc23)CC1` [compound 891]: at M1 muscarinic receptor, the maximal response (Emax) fell in the range of 25 to 100% and the “M1 Activity” value is recorded as “xxx (activity was measured to be less than 2.0 μM)”. Moreover, on M4 muscarinic receptor, the maximal effect (Emax) fell in the range of 25 to 100% and the “M4 Activity” value was “xxx (activity was measured to be less than 2.0 μM)”.
Regarding `CCC(C)(C)C1CCC(N2CCC3(CC2)CN(C(C)=O)c2ccc(F)cc23)CC1` (stereo not drawn) [compound 892], on M1 muscarinic receptor, the Emax was less than 25% and the “M1 Activity” value was “x (activity was measured to be greater than 5.0 μM)”. Further, at M4 muscarinic receptor, the Emax was less than 25% and the “M4 Activity” value is reported as “x (activity was measured to be greater than 5.0 μM)”.
For `CC(=O)N1CC2(CCN(C3CCN(c4cncc(CC(C)C)n4)CC3)CC2)c2ccccc21` [compound 893], at M1 muscarinic receptor, the Emax is less than 25% and the “M1 Activity” value is listed as “x (activity was measured to be greater than 5.0 μM)”. On M4 muscarinic receptor, the maximum response (Emax) was less than 25% and the “M4 Activity” value was “x (activity was measured to be greater than 5.0 μM)”.
Regarding `CC(=O)N1CC2(CCN(C3CCN(c4nccs4)CC3)CC2)c2ccccc21` [compound 894], at M1 muscarinic receptor, the maximum response (Emax) fell in the range of 25 to 100% and the “M1 Activity” value is “x (activity was measured to be greater than 5.0 μM)”. For the same molecule, at M4 muscarinic receptor, the Emax was less than 25% and the “M4 Activity” value is reported as “x (activity was measured to be greater than 5.0 μM)”.
Take `CN(C)C(=O)N1CC2(CCN(C3CCN(c4cnccn4)CC3)CC2)c2cc(F)ccc21` [compound 895]: at M1 muscarinic receptor, the maximal effect (Emax) lay in the range of 25 to 100% and the “M1 Activity” value is on record as “xxx (activity was measured to be less than 2.0 μM)”. Further, on M4 muscarinic receptor, the Emax lay in the range of 25 to 100% and the “M4 Activity” value is recorded as “xxx (activity was measured to be less than 2.0 μM)”.
Consider `CCOC(=O)N1CCC(N2CCC3(CC2)CN(c2ccc(OC)nn2)c2ccc(F)cc23)CC1` [compound 896], for which, at M1 muscarinic receptor, the maximal effect (Emax) is 25 to 100% and the “M1 Activity” value is listed as “xxx (activity was measured to be less than 2.0 μM)”. On M4 muscarinic receptor, the Emax lay within 25 to 100% and the “M4 Activity” value is “xxx (activity was measured to be less than 2.0 μM)”.
As to `CCOC(=O)N1C2CCC1CC(N1CCC3(CC1)CN(C(C)=O)c1c(F)cc(F)cc13)C2` (stereo not drawn) [compound 897], on M1 muscarinic receptor, the Emax lay within 25 to 100% and the “M1 Activity” value is “xxx (activity was measured to be less than 2.0 μM)”. On M4 muscarinic receptor, the maximal response (Emax) is 25 to 100% and the “M4 Activity” value is given as “xxx (activity was measured to be less than 2.0 μM)”.
Take `Cc1cc(C(=O)N2CCC(N3CCC4(CC3)CN(C(=O)N(C)C)c3ccc(F)cc34)CC2)nn1C` [compound 898]: at M1 muscarinic receptor, the Emax is less than 25% and the “M1 Activity” value is listed as “x (activity was measured to be greater than 5.0 μM)”. On M4 muscarinic receptor, the maximal response (Emax) was less than 25% and the “M4 Activity” value is reported as “x (activity was measured to be greater than 5.0 μM)”.
With `CN(C)C(=O)N1CC2(CCN(C3CCN(C(=O)c4ccoc4)CC3)CC2)c2cc(F)ccc21` [compound 900], at M1 muscarinic receptor, the maximal response (Emax) was less than 25%; the “M1 Activity” value is “xx (activity was measured to be between 2.0 μM and 5.0 μM)”. In addition, on M4 muscarinic receptor, the Emax was less than 25% and the “M4 Activity” value is “x (activity was measured to be greater than 5.0 μM)”.
Take `O=C1CC2(CCN([C@@H]3C[C@H]4CC[C@@H]3C4)CC2)c2ccc(Cl)cc21` [compound 901]: at M1 muscarinic receptor, the Emax was 25 to 100%; the “M1 Activity” value was “xx (activity was measured to be between 2.0 μM and 5.0 μM)”. Further, at M4 muscarinic receptor, the Emax is 25 to 100%; the “M4 Activity” value was “xx (activity was measured to be between 2.0 μM and 5.0 μM)”.
With `CCOC(=O)N1CC2(CCN(C3CC4CCC3C4)CC2)c2cc(C)ccc21` (stereo not drawn) [compound 902], on M1 muscarinic receptor, the Emax is 25 to 100% and the “M1 Activity” value is “x (activity was measured to be greater than 5.0 μM)”. For the same molecule, at M4 muscarinic receptor, the Emax was less than 25% and the “M4 Activity” value was “x (activity was measured to be greater than 5.0 μM)”.
In the case of `CCOC(=O)N1CCC(N2CCC3(CC2)CN(C(=O)N2CCOCC2)c2ccccc23)CC1` [compound 903], at M1 muscarinic receptor, the maximum response (Emax) was 25 to 100%; the “M1 Activity” value is “xx (activity was measured to be between 2.0 μM and 5.0 μM)”. Further, on M4 muscarinic receptor, the Emax fell in the range of 25 to 100% and the “M4 Activity” value is “xxx (activity was measured to be less than 2.0 μM)”.
For the molecule `O=C(O)C1CC2(CCN(C3CC4CCC3C4)CC2)c2ccccc21` (stereo not drawn) [compound 904], at M1 muscarinic receptor, the Emax was less than 25% and the “M1 Activity” value is listed as “x (activity was measured to be greater than 5.0 μM)”. Also, on M4 muscarinic receptor, the Emax is less than 25% and the “M4 Activity” value is listed as “x (activity was measured to be greater than 5.0 μM)”.
On to `CCOC(=O)N1CCC(N2CCC3(CC2)CN(c2cncnc2)c2ccccc23)CC1` [compound 905], for which, at M1 muscarinic receptor, the maximum response (Emax) is 25 to 100% and the “M1 Activity” value is “xxx (activity was measured to be less than 2.0 μM)”. Also, on M4 muscarinic receptor, the maximal effect (Emax) is 25 to 100% and the “M4 Activity” value is “xxx (activity was measured to be less than 2.0 μM)”.
Regarding `CCOC(=O)N1CCC(N2CCC3(CC2)CN(C(C)=O)c2c(-c4cccc(C)c4)cccc23)CC1` [compound 907], on M1 muscarinic receptor, the maximum response (Emax) was in the range of 25 to 100% and the “M1 Activity” value is reported as “x (activity was measured to be greater than 5.0 μM)”. At M4 muscarinic receptor, the maximum response (Emax) was less than 25% and the “M4 Activity” value is reported as “x (activity was measured to be greater than 5.0 μM)”.
In the case of `CCOC(=O)N1CCC(N2CCC3(CC2)CN(c2ccc(OC)cc2)c2ccc(F)cc23)CC1` [compound 908], at M1 muscarinic receptor, the maximal response (Emax) was 25 to 100% and the “M1 Activity” value is reported as “xxx (activity was measured to be less than 2.0 μM)”. At M4 muscarinic receptor, the maximal response (Emax) is 25 to 100% and the “M4 Activity” value was “xxx (activity was measured to be less than 2.0 μM)”.
Turning to `CCCOC(=O)N1CCC(N2CCC3(CC2)CN(C(C)=O)c2ccccc23)CC1` [compound 910], at M1 muscarinic receptor, the Emax was 25 to 100% and the “M1 Activity” value was “xxx (activity was measured to be less than 2.0 μM)”. In addition, on M4 muscarinic receptor, the Emax was less than 25%; the “M4 Activity” value is “xx (activity was measured to be between 2.0 μM and 5.0 μM)”.
In the case of `CCOC(=O)N1CCC(N2CCC3(CC2)CN(C(C)=O)c2c(-c4ccccc4C)cccc23)CC1` [compound 911], on M1 muscarinic receptor, the Emax was less than 25% and the “M1 Activity” value is listed as “x (activity was measured to be greater than 5.0 μM)”. Also, at M4 muscarinic receptor, the Emax was less than 25% and the “M4 Activity” value is recorded as “x (activity was measured to be greater than 5.0 μM)”.

(Values after patent US7786141B2 (Vertex Pharmaceuticals Incorporated, priority 2004, dated 2010).)
